Earlier results in patent US20020112260A1, “Plants having resistance to multiple herbicides and its use” (Asgrow Seed Company LLC, priority 1997, published 2002).

System: soybeans
Settings: non-STS soybeans

| SMILES | crop injury |
| --- | --- |
| COc1cc(Cl)nc(NC(=O)NS(=O)(=O)c2ccccc2C(=O)O)n1 [chlorimuron] | can cause significant crop injury |
| COc1nc(C)nc(NC(=O)NS(=O)(=O)c2ccsc2C(=O)O)n1 [thifensulfuron] | can cause significant crop injury |
